Assay results as given in PubChem BioAssay (NCI).
Values joined by “and” are separate entries in the source; they are usually repeats but may differ in a detail not shown here. Equal values may be shown once.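 Five concentrations, 48 hours, 96-well plates. At the GI50, growth is halved. TGI marks complete inhibition of growth.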

What was measured:
Assay in all cases: NCI-60 cell line screen, 48 h
A498 renal = tested on: A498 renal
EKVX NSCLC = tested on: EKVX NSCLC
HOP-62 NSCLC = tested on: HOP-62 NSCLC
NCI-H522 lung = tested on: NCI-H522 lung
SK-MEL-2 melanoma = tested on: SK-MEL-2 melanoma
SNB-19 CNS = tested on: SNB-19 CNS
TK-10 renal = tested on: TK-10 renal
UO-31 renal = tested on: UO-31 renal

SMILES	GI50 (A498 renal)	TGI (A498 renal)	GI50 (EKVX NSCLC)	TGI (EKVX NSCLC)	GI50 (HOP-62 NSCLC)	TGI (HOP-62 NSCLC)	GI50 (NCI-H522 lung)	TGI (NCI-H522 lung)	GI50 (SK-MEL-2 melanoma)	TGI (SK-MEL-2 melanoma)	GI50 (SNB-19 CNS)	TGI (SNB-19 CNS)	GI50 (TK-10 renal)	TGI (TK-10 renal)	GI50 (UO-31 renal)	TGI (UO-31 renal)
O=C(Nc1cn[nH]c1-c1nc2ccc(CN3CCOCC3)cc2[nH]1)NC1CC1	0.373 µM	3.91 µM	1.76 µM and > 10 µM	9.94 µM and > 10 µM	0.721 µM and 1.93 µM	4.01 µM and > 10 µM	0.563 µM and 1.18 µM	3.43 µM and > 10 µM	1.35 µM and > 10 µM	3.94 µM and > 10 µM	1.16 µM and 2.62 µM	11.3 µM and > 10 µM	1.24 µM and 5.07 µM	6 µM and > 10 µM	0.851 µM and 2.33 µM	> 24.6 µM
O=C1/C(=C/c2ccc(F)cc2)CN(C(=O)C(Cl)Cl)C/C1=C\c1ccc(F)cc1	0.404 µM	1.54 µM	0.393 µM	1.46 µM	0.407 µM	1.51 µM	1.5 µM	3.27 µM	0.94 µM	2.9 µM	0.287 µM	1.25 µM	0.67 µM	1.96 µM	0.163 µM	0.327 µM
CCOC(=O)Nc1ccc2c(c1)C(=O)N(CC)c1ccccc1O2	0.0786 µM	11.8 µM	0.264 µM	> 100 µM	0.128 µM	> 100 µM	0.0797 µM	1.09 µM	0.102 µM	> 100 µM	0.268 µM	> 100 µM	> 100 µM	> 100 µM	0.379 µM	> 100 µM
O=c1oc2ccc(Cl)cc2c(=O)n1-c1ccc(F)cc1F	0.372 µM	1.68 µM	1.98 µM	8.04 µM	1.49 µM	4.84 µM	1.4 µM	10.3 µM	1.13 µM	3.97 µM	2.27 µM	> 100 µM	5.55 µM	68.2 µM	1.22 µM	7.97 µM
CCN(CCO)CCCC(C)Nc1ccnc2cc(Cl)ccc12 (configuration not stated)	> 100 µM	> 100 µM	> 100 µM	> 100 µM	> 100 µM	> 100 µM	> 100 µM	> 100 µM	> 100 µM	> 100 µM	> 100 µM	> 100 µM	> 100 µM	> 100 µM	> 100 µM	> 100 µM
COc1ccc(CNCCCN2C(=O)c3ccc4c5c(ccc(c35)C2=O)C(=O)N(CCCNCc2ccc(OC)c(OC)c2OC)C4=O)c(OC)c1OC	0.61 µM	1.25 µM	0.0929 µM	0.176 µM	0.171 µM	0.729 µM	0.0804 µM	0.163 µM	0.0911 µM	0.191 µM	0.0877 µM	0.18 µM	0.0981 µM	0.269 µM	0.585 µM	1.22 µM
C/C(CC(C)(C)N1CC1)=N\NC(=O)Nc1cccc2ccccc12	2.55 µM	9.5 µM	5.84 µM	19.9 µM	4.12 µM	15.8 µM	2.04 µM	5.36 µM	2.24 µM	5.45 µM	5.14 µM	18.1 µM	2.81 µM	7.23 µM	2.58 µM	12.2 µM
O=[N+]([O-])c1ccc(N=Nc2c(Cl)cc(O)cc2Cl)cc1	1.73 µM	4.6 µM	1.94 µM	5.57 µM	2.17 µM	5.87 µM	0.473 µM	4.09 µM	1.66 µM	4.39 µM	1.94 µM	15.7 µM	4.34 µM	25.8 µM		
CC1(C)N=c2cc3c(cc2N1c1ccc(Cl)cc1)=Nc1ccccc1N3c1ccc(Cl)cc1	8.37 µM	> 100 µM	5.31 µM	> 100 µM	> 100 µM	> 100 µM	3.93 µM	74.6 µM	3.9 µM	> 100 µM	58.2 µM	> 100 µM	3.84 µM	67 µM	2.96 µM	> 100 µM
COC(=O)C1=C(C(=O)ON)[C@@H]2C=C[C@@]1([C@@H](Cc1ccccc1)Nc1ccccc1)O2	12.3 µM	24.8 µM	1.83 µM	4.16 µM	16.9 µM	32.4 µM	1.48 µM	3.41 µM	15.6 µM	30 µM	16 µM	29.5 µM	1.7 µM	3.08 µM	1.51 µM	2.84 µM
FC(F)(F)c1cc(NC(=S)N2c3ccccc3-n3cccc3C2c2cccnc2)cc(C(F)(F)F)c1 (configuration not stated)	13.7 µM	30.3 µM	9.67 µM	37.8 µM	7.23 µM	21.7 µM	3.68 µM	13.7 µM	12.7 µM	31.6 µM	7.55 µM	29.9 µM	2.9 µM	9.39 µM	19.9 µM	36.9 µM
CCCCc1n(Cc2ccc3ccccc3n2)cc[n+]1Cc1ccc2ccccc2n1	3.01 µM	12.9 µM	2.58 µM	20.2 µM	2.72 µM	11.1 µM	0.445 µM	4.99 µM	1.43 µM	5.58 µM	0.826 µM	12.9 µM	2.5 µM	10.3 µM	11.7 µM	24.5 µM
Cc1ccc2[nH]c(C(=O)NN3C(=O)C(C)SC34CCC(C)CC4)c(-c3ccccc3)c2c1 (configuration not stated)	17.2 µM	35 µM	19.6 µM	56.1 µM	18.1 µM	37.7 µM	13 µM	31.1 µM	17.8 µM	36.7 µM	22.7 µM	62.4 µM	14.2 µM	29.6 µM	14 µM	29.4 µM
COc1ccc(C2CC(c3ccc(OC)cc3O)=NN2c2ccc(S(N)(=O)=O)cc2)cc1 (configuration not stated)	13.1 µM	80.2 µM	4.48 µM	> 100 µM	33.1 µM	> 100 µM	15.5 µM	> 100 µM	17.1 µM	85.9 µM	27.3 µM	> 100 µM	7.18 µM	> 100 µM	2.99 µM	> 100 µM
